Experimental data from patent US20140073691A1, “Methods and composition for Treating Thyroid Hormone Related Disorders” (Zafgen, Inc., priority 2010, published 2014).

System: plasma thyroid stimulating hormone (TSH)
Assay: Administration of MetAP-2 inhibitor to obese subjects: plasma TSH and circulating thyroid hormones
Type: in vivo, human (obese subjects)
Method: FIG. 1 depicts the results of administration of a MetAP2 inhibitor to obese patients and indicates the reduction in plasma thyroid stimulating hormone, without reductions in circulating thyroid hormone (free T3 and T4) concentrations.
8 obese subjects who were not taking any thyroid medication were treated with O-(4-dimethylaminoethoxycinnamoyl)fumagillol at a dose of 0.9 mg per square meter of body surface area (approximately 1.8 mg per dose) for 26 days. […] (FIG. 1). This is indicative of improved thyroid hormone sensitivity and a reduction in thyroid hormone resistance.

SMILES: CO[C@@H]1[C@H](OC(=O)C=Cc2ccc(OCCN(C)C)cc2)CC[C@]2(CO2)[C@H]1[C@@]1(C)O[C@@H]1CC=C(C)C [O-(4-dimethylaminoethoxycinnamoyl)fumagillol]
- plasma thyroid stimulating hormone (TSH) (8 obese subjects not taking thyroid medication, 0.9 mg per square meter of body surface area (approximately 1.8 mg per dose) for 26 days): significant reduction
- circulating thyroid hormone T4 (8 obese subjects, 0.9 mg per square meter of body surface area for 26 days, T4 (FIG. 1)): without a reduction
- circulating thyroid hormone T3 (8 obese subjects, 0.9 mg per square meter of body surface area for 26 days, free T3 (FIG. 1)): without a reduction
